Among the data in patent US6586405B2, “Non-covalent inhibitors of urokinase and blood vessel formation” (Corvas International, Inc., priority 2000, dated 2003) are IC50 and Ki values, retold here.

As usually defined, the IC50 is the concentration that inhibits the measured activity by half. For orientation: Ki means a dissociation constant, usually derived from enzyme kinetics or from competition with a known ligand.

A value given as a limit tells only on which side of the number the result lay.

Type in all cases: biochemical
For one test, the target named is T1, human plasmin (Homo sapiens, UniProt P00747).
T1 construct: Purified human plasmin was obtained from Enzyme Research Laboratories, Inc; purchased Enzyme Research Laboratories, Inc
Description: Plasmin assay, chromogenic substrate S-2366. To be noted: 30 minute incubation, HBSA buffer, plasmin 1.0 nM. How it is done: (§1) The ability of compounds of the present invention to act as selective inhibitors of urokinase catalytic activity was assessed by determining the concentration of test compound which inhibited the activity of this enzyme by 50%, (IC50), and comparing this value to that determined for all or some of the following related serine proteases: recombinant tissue plasminogen activator (rt-PA), plasmin, activated protein C, chymotrypsin, factor Xa, thrombin and trypsin.
(§2) The buffer used for all assays was HBSA (10 mM HEPES, pH 7.5, 150 mM sodium chloride, 0.1% bovine serum albumin).
(§3) The assay for IC50 determinations was conducted by combining in appropriate wells of a Corning microtiter plate, 50 microliters of HBSA, 50 microliters of the test compound at a specified concentration (covering a broad concentration range) diluted in HBSA (or HBSA alone for VO (uninhibited velocity) measurement), and 50 microliters of the enzyme diluted in HESA. Following a 30 minute incubation at ambient temperature, 50 microliters of the substrate at the concentrations specified below were added to the wells, yielding a final total volume of 200 microliters (about 4 times Km). The initial velocity of chromogenic substrate hydrolysis was measured by the change in absorbance at 405 nm using a Thermo Max® Kinetic Microplate Reader over a 5 minute period in which less than 5% of the added substrate was utilized. The concentration of added inhibitor which caused a 50% decrease in the initial rate of hydrolysis was defined as the IC50 value. Ki may be calculated from the IC50 value.
Plasmin catalytic activity was determined using the chromogenic substrate, S-2366 [L-pyroglutamyl-L-prolyl-L-arginine-p-nitroaniline hydrochloride], which was obtained from DiaPharma Group. The substrate was made up in deionized water followed by dilution in HBSA prior to the assay in which the final concentration was 300 micromolar (about 2.5-times Km). Purified human plasmin was obtained from Enzyme Research Laboratories, Inc. The enzyme was diluted into HBSA prior to assay in which the final concentration was 1.0 nM.

Another test has as its target T2, Urokinase (Abbokinase) (Homo sapiens, UniProt P00749).
T2 construct: purchased Abbott Laboratories (manufacturer), obtained from Priority Pharmaceuticals
Description: Urokinase assay, chromogenic substrate S-2444. To be noted: Ki calculated using the IC50 value; 30 minute incubation, HBSA buffer; read-out: Ki uPA. The method, then:
as §1, §2, §3
Urokinase catalytic activity was determined using the chromogenic substrate […] S-2444 (L-Pyroglutamyl-glycyl-L-arginine-p-nitroaniline hydrochloride), obtained from DiaPharma Group, Inc. Urokinase (Abbokinase), manufactured by Abbott Laboratories, was obtained from Priority Pharmaceuticals and diluted to 750 pM in the HBSA assay buffer prior to use. The assay buffer was HBS (10 mM HEPES, 150 mM sodium chloride pH 7.4) with 0.1% BSA. Ki was calculated using the IC50 value.

The target of the next test is T3, Human rt-PA (Activase) (Homo sapiens, UniProt P00750).
T3 construct: purchased Genentech Inc
As to the kind of experiment: Recombinant tissue plasminogen activator (rt-PA) assay, chromogenic substrate Pefachrome t-PA. To be noted: 30 minute incubation, HBSA buffer, rt-PA 1.0 nM. How it is done:
as §1, §2, §3
rt-PA catalytic activity was determined using the substrate, Pefachrome t-PA (CH3SO2-D-hexahydrotyrosine-glycyl-L-arginine-p-nitroaniline, obtained from Pentapharm Ltd.). The substrate was made up in deionized water followed by dilution in HBSA prior to the assay in which the final concentration was 500 micromolar (about 3-times Km). Human rt-PA (Activase®) was obtained from Genentech Inc. The enzyme was reconstituted in deionized water and diluted into HBSA prior to the assay in which the final concentration was 1.0 nM.

T3 sequence (P00750 36-562): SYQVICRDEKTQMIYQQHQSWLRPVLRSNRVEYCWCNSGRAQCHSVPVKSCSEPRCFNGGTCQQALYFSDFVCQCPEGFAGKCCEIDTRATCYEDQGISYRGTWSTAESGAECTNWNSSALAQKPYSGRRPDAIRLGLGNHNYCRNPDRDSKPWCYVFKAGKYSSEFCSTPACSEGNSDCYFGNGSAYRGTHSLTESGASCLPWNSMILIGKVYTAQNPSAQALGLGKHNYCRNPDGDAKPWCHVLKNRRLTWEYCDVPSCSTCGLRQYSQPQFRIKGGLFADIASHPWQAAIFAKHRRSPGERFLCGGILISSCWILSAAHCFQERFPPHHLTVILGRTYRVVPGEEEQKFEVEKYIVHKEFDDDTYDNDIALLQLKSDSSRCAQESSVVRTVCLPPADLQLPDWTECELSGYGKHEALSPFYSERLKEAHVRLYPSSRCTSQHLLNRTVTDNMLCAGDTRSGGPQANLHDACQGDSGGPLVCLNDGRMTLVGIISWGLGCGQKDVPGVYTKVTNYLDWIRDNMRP
T1 sequence (P00747 581-810 limits assumed): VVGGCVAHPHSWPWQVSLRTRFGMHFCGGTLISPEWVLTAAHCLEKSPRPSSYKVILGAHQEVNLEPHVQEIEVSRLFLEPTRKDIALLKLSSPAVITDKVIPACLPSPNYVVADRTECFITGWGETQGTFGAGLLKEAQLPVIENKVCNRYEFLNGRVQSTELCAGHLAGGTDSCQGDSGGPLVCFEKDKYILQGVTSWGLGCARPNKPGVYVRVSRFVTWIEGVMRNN
T1 sequence (P00747 97-580 partner limits assumed): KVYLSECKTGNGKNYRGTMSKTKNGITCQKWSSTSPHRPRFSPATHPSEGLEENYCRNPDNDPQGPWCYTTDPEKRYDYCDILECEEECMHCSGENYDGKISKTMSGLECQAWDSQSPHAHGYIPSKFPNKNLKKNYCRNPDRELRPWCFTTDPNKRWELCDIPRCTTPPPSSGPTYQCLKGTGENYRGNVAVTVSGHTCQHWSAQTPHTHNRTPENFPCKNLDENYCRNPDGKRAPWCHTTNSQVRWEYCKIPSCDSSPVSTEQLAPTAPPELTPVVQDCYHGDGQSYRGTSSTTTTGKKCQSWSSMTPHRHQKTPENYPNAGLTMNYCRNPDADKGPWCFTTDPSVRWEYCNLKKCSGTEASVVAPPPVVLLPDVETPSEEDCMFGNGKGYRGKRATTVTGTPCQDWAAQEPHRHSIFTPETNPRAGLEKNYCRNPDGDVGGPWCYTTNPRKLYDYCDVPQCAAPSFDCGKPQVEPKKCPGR

`CCCCS(=O)(=O)NC(CO)C(=O)N1CC2CC2C1C(=O)NCc1ccc(C(=N)N)cc1` (mixture of isomers) [AA]: the IC50 at human plasmin and at Human rt-PA (Activase) was greater than 2500 nM throughout. Also, the Ki at Urokinase (Abbokinase) is less than 100 nM.
For `CCCCS(=O)(=O)NC(CO)C(=O)N1CCCC1C(=O)NCc1ccc(C(=N)N)cc1` (mixture of isomers) [N], the IC50 against human plasmin and on Human rt-PA (Activase) was greater than 2500 nM each time. The Ki at Urokinase (Abbokinase) is less than 100 nM.
With `CCCCS(=O)(=O)NC(CO)C(=O)N1CC=CC1C(=O)NCc1ccc(C(=N)N)cc1` (mixture of isomers) [O], the 50% inhibitory concentration (IC50) against human plasmin and at Human rt-PA (Activase) was greater than 2500 nM throughout. Moreover, on Urokinase (Abbokinase), the Ki was less than 100 nM.
Regarding `N=C(N)c1ccc(CNC(=O)C2C=CCN2C(=O)C(CO)NS(=O)(=O)Cc2ccccc2)s1` (mixture of isomers) [U], the IC50 at human plasmin and at Human rt-PA (Activase) was 250 to 2500 nM each time. Moreover, the Ki on Urokinase (Abbokinase) was less than 100 nM.
As to `N=C(N)c1ccc(CNC(=O)C2C3CC3CN2C(=O)C(CO)NS(=O)(=O)Cc2ccccc2)cc1` (stereo not drawn) [AD], the IC50 against human plasmin is 250 to 2500 nM; on Human rt-PA (Activase), greater than 2500 nM. Also, the inhibition constant Ki on Urokinase (Abbokinase) was less than 100 nM.
For `CCCCS(=O)(=O)NC(CO)C(=O)NC(C)C(=O)NCc1ccc(NC(=N)N)cc1` (stereo not drawn) [AG], in that order: greater than 2500 nM, greater than 2500 nM and less than 100 nM.
In the same order, the values of `C[C@H](NC(=O)[C@@H](CO)NS(=O)(=O)Cc1ccccc1)C(=O)NCc1ccc(C(=N)N)s1` [AH] are greater than 2500 nM, 250 to 2500 nM and less than 100 nM.
As for `C[C@H](NC(=O)[C@@H](CO)NS(=O)(=O)c1ccc2ccccc2c1)C(=O)NCc1ccc(C(=N)N)cc1` [AI], the IC50 at human plasmin and on Human rt-PA (Activase) was greater than 2500 nM in each case. Besides, the Ki on Urokinase (Abbokinase) was 100 to 250 nM.
`C[C@H](NC(=O)[C@@H](CO)NS(=O)(=O)Cc1ccccc1)C(=O)NCc1ccc(C(=N)N)cc1` [AJ]: the half-inhibitory concentration (IC50) against human plasmin and on Human rt-PA (Activase) was greater than 2500 nM throughout.
Take `C[C@H](NC(=O)[C@@H](C)NS(=O)(=O)Cc1ccccc1)C(=O)NCc1ccc(C(=N)N)cc1` [AK]: the IC50 against human plasmin and on Human rt-PA (Activase) was greater than 2500 nM each time. Moreover, the Ki at Urokinase (Abbokinase) is less than 100 nM.
In the case of `C=CC[C@H](NC(=O)[C@@H](CO)NS(=O)(=O)Cc1ccccc1)C(=O)NCc1ccc(C(=N)N)cc1` [AL], the IC50 against human plasmin and at Human rt-PA (Activase) was greater than 2500 nM in each case. Further, on Urokinase (Abbokinase), the Ki was less than 100 nM.
Take `C[C@H](NC(=O)[C@@H](CO)NS(=O)(=O)Cc1ccccc1)C(=O)NCc1ccc(NC(=N)NC(=O)OC(C)(C)C)cc1` [AM]: the half-inhibitory concentration (IC50) at human plasmin and at Human rt-PA (Activase) was greater than 2500 nM throughout. Besides, the Ki on Urokinase (Abbokinase) is less than 100 nM.
As for `C[C@H](NC(=O)[C@@H](CO)NS(=O)(=O)Cc1ccccc1)C(=O)NCc1ccc(NC(=N)N)cc1` [AN], the IC50 against human plasmin and at Human rt-PA (Activase) was greater than 2500 nM throughout. At Urokinase (Abbokinase), the Ki is less than 100 nM.
Regarding `C[C@H](NC(=O)[C@@H](CO)NS(=O)(=O)Cc1ccccc1)C(=O)NCc1ccc(C(=N)N)cn1` [AO], the IC50 against human plasmin and at Human rt-PA (Activase) was greater than 2500 nM throughout. In addition, the Ki at Urokinase (Abbokinase) was 100 to 250 nM.
For `C[C@@H](NC(=O)[C@@H](CO)NS(=O)(=O)c1cccc2ccccc12)C(=O)NCc1ccc(C(=N)N)cc1` [AP], the 50% inhibitory concentration (IC50) against human plasmin and on Human rt-PA (Activase) was greater than 2500 nM in each case. Also, on Urokinase (Abbokinase), the Ki is less than 100 nM.
For the compound `N=C(N)Nc1ccc(CNC(=O)Cn2cccc(NS(=O)(=O)Cc3ccccc3)c2=O)cc1` [AR], the IC50 on human plasmin and on Human rt-PA (Activase) was greater than 2500 nM in each case. Moreover, at Urokinase (Abbokinase), the Ki is 250 to 2500 nM.
Consider `CCC[C@H](NC(=O)[C@@H](CO)NS(=O)(=O)Cc1ccccc1)C(=O)NCc1ccc(C(=N)N)cc1` [AS], for which the IC50 against human plasmin and at Human rt-PA (Activase) was greater than 2500 nM throughout. Moreover, on Urokinase (Abbokinase), the Ki was less than 100 nM.
Consider `CC[C@H](NC(=O)[C@@H](CO)NS(=O)(=O)Cc1ccccc1)C(=O)NCc1ccc(C(=N)N)cc1` [AT], for which the IC50 at human plasmin and at Human rt-PA (Activase) was greater than 2500 nM each time. In addition, the Ki on Urokinase (Abbokinase) is less than 100 nM.
On to `C[C@H](NC(=O)[C@@H](CO)NS(C)(=O)=O)C(=O)NCc1ccc(C(=N)N)cc1` [AU], for which the half-inhibitory concentration (IC50) on human plasmin and on Human rt-PA (Activase) was greater than 2500 nM throughout. For the same compound, the Ki at Urokinase (Abbokinase) was 250 to 2500 nM.
As to `N=C(N)Nc1ccc(CNC(=O)[C@@H]2C=CCN2C(=O)[C@@H](CO)NS(=O)(=O)Cc2ccccc2)cc1` [AV], the IC50 against human plasmin and on Human rt-PA (Activase) was greater than 2500 nM in each case. In addition, the inhibitory constant (Ki) at Urokinase (Abbokinase) is less than 100 nM.
On to `C[C@H](NC(=O)[C@@H](CO)NS(=O)(=O)Cc1ccccc1)C(=O)NCc1ccc(NC(=N)N)s1` [AW], for which the IC50 on human plasmin and on Human rt-PA (Activase) was greater than 2500 nM each time. The Ki at Urokinase (Abbokinase) was 250 to 2500 nM.
Turning to `CCCCS(=O)(=O)N[C@H](CO)C(=O)N[C@@H](C)C(=O)NCc1ccc(C(=N)N)cc1` [A], the IC50 against human plasmin and at Human rt-PA (Activase) was greater than 2500 nM each time. Also, at Urokinase (Abbokinase), the Ki is less than 100 nM.
For `CCCCS(=O)(=O)N[C@H](CO)C(=O)N[C@@H](C)C(=O)NCCCCNC(=N)N` [B], the IC50 on human plasmin and at Human rt-PA (Activase) was greater than 2500 nM throughout. Moreover, on Urokinase (Abbokinase), the Ki was 250 to 2500 nM.
For the compound `N=C(N)c1ccc(CNC(=O)[C@@H]2C=CCN2C(=O)[C@@H](CO)NS(=O)(=O)CCc2ccccc2)cc1` [F], the Ki on Urokinase (Abbokinase) is less than 100 nM. Besides, the IC50 on Human rt-PA (Activase) is greater than 2500 nM.
`N=C(N)c1ccc(CNC(=O)[C@@H]2CCCN2C(=O)[C@@H](CO)NS(=O)(=O)Cc2ccccc2)cc1` [J]: the IC50 on human plasmin is 250 to 2500 nM; on Human rt-PA (Activase), greater than 2500 nM.
For the compound `N=C(N)c1ccc(CNC(=O)[C@@H]2C=CCN2C(=O)[C@@H](CO)NS(=O)(=O)Cc2ccccc2)cc1` [K], the IC50 at human plasmin was 250 to 2500 nM; at Human rt-PA (Activase) it was greater than 2500 nM. Besides, the Ki at Urokinase (Abbokinase) was less than 100 nM.
In the same order, the values of `CCCCS(=O)(=O)N[C@H](CO)C(=O)N[C@@H](C)C(=O)NCc1ccc(C(=N)N)s1` [L] are greater than 2500 nM, greater than 2500 nM and less than 100 nM.
For `CCCCS(=O)(=O)N[C@H](CO)C(=O)N1CC2CC2C1C(=O)NCc1ccc(C(=N)N)cc1` (stereo partly drawn) [Q], in that order: greater than 2500 nM, greater than 2500 nM and less than 100 nM.
For `N=C(N)c1ccc(CNC(=O)[C@@H]2CCN2C(=O)[C@@H](CO)NS(=O)(=O)Cc2ccccc2)cc1` [R], in that order: greater than 2500 nM, greater than 2500 nM and less than 100 nM.
As for `N=C(N)c1ccc(CNC(=O)[C@@H]2CCN2C(=O)[C@@H](CO)NS(=O)(=O)CCc2ccccc2)cc1` [S], the IC50 at human plasmin and at Human rt-PA (Activase) was greater than 2500 nM throughout. Also, at Urokinase (Abbokinase), the Ki was 100 to 250 nM.
In the case of `N=C(N)c1ccc(CNC(=O)[C@@H]2C3CC3CN2C(=O)[C@@H](CO)NS(=O)(=O)Cc2ccccc2)cc1` (stereo partly drawn) [T], the IC50 against human plasmin is 250 to 2500 nM; at Human rt-PA (Activase), greater than 2500 nM. In addition, the Ki at Urokinase (Abbokinase) is less than 100 nM.
In the same order, the values of `CCCCS(=O)(=O)N[C@H](CO)C(=O)N1CCC1C(=O)NCc1ccc(C(=N)N)cc1` (stereo partly drawn) [Z] are greater than 2500 nM, greater than 2500 nM and less than 100 nM.
